# According to patent publication US20260226084A1, “DUAL RAF AND TUBULIN INHIBITORS AND METHODS OF USE THEREOF” (Deciphera Pharmaceuticals, LLC, priority 2023, published 2026):
# Read-outs that look alike come from different tables or passages of the source.
# Legend:
# [1] = target: T1, Porcine Brain Tubulin (Sus scrofa, UniProt P02550+P02554); assay: Biochemical Tubulin Polymerization Assay
# T1 construct: Porcine Brain Tubulin (T240); purchased Cytoskeleton, Inc T240; BK011P; host or cells: porcine brain (tissue-purified)
# [2] = target: T2, C-Raf kinase (SEQ ID NO: 2) (Homo sapiens, UniProt P04049, Y340D/Y341D); assay: Biochemical Assay for C-Raf (coupled pyruvate kinase/lactate dehydrogenase assay)
# T2 construct: C-Raf residues 306-end; Y340D, Y341D with; GST (N); purchased Sigma
# [3] = test system: HCT-116 cells; assay: HCT-116 Cell Proliferation Assay; assay type: cell-based
# In short: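 IC50 values come from resazurin fluorescence (540 nm excitation, 600 nm emission) added for 4 to 5 h after compound treatment. Treatment: serially diluted compound in triplicate on 375 HCT-116 cells per well in complete McCoy's 5A/10% FBS, 67 to 72 hours, 37 °C, 5% CO2.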
# [4] = test system: HPAF-II cells; assay: HPAF-II Cell Proliferation Assay; assay type: cell-based
# In short: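 Viability read-out was resazurin fluorescence (540 nm excitation, 600 nm emission), developed 18–24 h after a 115–120 h compound exposure of 750 HPAF-II cells per well in MEM/10% FBS at 37 °C. Compound was tested as a serial dilution in triplicate, and IC50 values were calculated.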
# [5] = target: T3, B-Raf kinase (SEQ ID NO: 1) (Homo sapiens, UniProt P15056); assay: Biochemical Assay for B-Raf (coupled pyruvate kinase/lactate dehydrogenase assay)
# T3 construct: GST (N); purchased Sigma
# [6] = test system: MiaPaca-2 cells; assay: MiaPaca-2 Cell Proliferation Assay; assay type: cell-based
# In short: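 Viability was read as resazurin fluorescence (540 nm excitation, 600 nm emission) after 5–6 h with dye. Compounds were tested as serial dilutions in triplicate, with IC50 derived from the dose–response.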
# [7] = test system: tubulin polymerization in HCT-116 cells; assay: Cellular Tubulin Polymerization Assay; assay type: cell-based; details: Homo sapiens, Table 5, read-out: Tubulin Cellular
# Experimental: HCT-116 cells (catalog #CCL-247) are obtained from the American Type Culture Collect (ATCC, Manassas, VA). Briefly, cells are grown in McCoy's 5A supplemented with 10% characterized fetal bovine serum (Invitrogen, Carlsbad, CA) and 1% Penicillin/Streptomycin/L-Glutamine at 37° C., 5% CO2, and 95% humidity. Cells are expanded until reaching 70-95% confluency at which point they are subcultured or harvested for assay use. 450000 cells are added per well in 1500 μL complete growth medium in a tissue culture treated, 12-well plate. Plates are incubated for 18 to 24 h at 37° C., 5% CO2, and 95% humidity. At the end of the incubation, 2000 μL of base culture media is added to each well, followed by a serial dilution of compound. Plates are incubated for an additional 1 h at 37° C., 5% CO2, and 95% humidity. Lysates are generated by the addition of 100 μL Lysis and Microtubule Stabilization Buffer 1 (LMS01, Cytoskeleton Inc, Denver, CO) supplemented with GTP (BST06, Cytoskeleton Inc), ATP (BSA04, Cytoskeleton Inc), and Protease Inhibitor Cocktail Stock (PIC02, Cytoskeleton Inc). Cells are scraped off wells using a rubber cell scraper and collected in a clean 96-well plate. Lysates are centrifuged at 1000×g, 37° C. for 10 min and supernatant fraction is placed into an additional 96-well plate. The remaining pellet fraction is reconstituted in 100 μL LMS01 buffer and sonicated for 10 min. Pellet and Supernatant fractions are probed for α-tubulin via western blot analysis on the Jess System or equivalent (Bio-techne, Minneapolis, MN). Data is analyzed using Prism software (Graphpad, San Diego, CA) to calculate IC50values.
# [8] = test system: Pa16c cells; assay: Pa16c Cell Proliferation Assay; assay type: cell-based; details: Table 2, read-out: Inhibition of cell proliferation in Pa16c (IC50 class)
# In short: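 Proliferation read-out: resazurin fluorescence (540 nm excitation, 600 nm emission) after an extra 18 to 24 h. Before that, compound dilution series (triplicate) stayed on 750 Pa16c cells/well in complete DMEM/10% FBS for 67 to 72 h at 37° C. IC50 values derived from the curves.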
# [9] = Table 4, representative compounds from PCT/US2022/081242, read-out: Tubulin Biochem IC50
# [10] = Table 4, representative compounds from PCT/US2022/081242, read-out: CRAF IC50
# [11] = Homo sapiens, HCT-116, Table 4, HCT-116 mutant KRAS colorectal cancer cell line, read-out: HCT-116 IC50
# [12] = Homo sapiens, HPAF-II, Table 4, HPAF-II mutant KRAS pancreatic cancer cell line, read-out: HPAF-II IC50
# [13] = Table 4, representative compounds from PCT/US2022/081242, read-out: BRAF IC50
# [14] = Homo sapiens, MIA PaCa-2, Table 4, MiaPaca-2 mutant KRAS pancreatic cancer cell line, read-out: MiaPaca-2 IC50
# [15] = Table 3, Tubulin Biochemical assay, read-out: Tubulin Biochem (IC50 class)
# [16] = 1 mM ATP, read-out: CRAF (inhibition of biochemical activity, IC50)
# [17] = Table 3, read-out: CRAF (IC50 class)
# [18] = Homo sapiens, HCT-116, HCT-116 cells, Table 2, read-out: Inhibition of cell proliferation in HCT-116 (IC50 class)
# [19] = Homo sapiens, HCT-116, Table 3, read-out: HCT-116 (IC50 class)
# [20] = Homo sapiens, HPAF-II, HPAF-II cells, Table 2, read-out: Inhibition of cell proliferation in HPAF-II (IC50 class)
# [21] = Homo sapiens, HPAF-II, Table 3, read-out: HPAF-II (IC50 class)
# [22] = 1 mM ATP, read-out: BRAF (inhibition of biochemical activity, IC50)
# [23] = Table 3, read-out: BRAF (IC50 class)
# [24] = Homo sapiens, MIA PaCa-2, MiaPaca-2 cells, Table 2, read-out: Inhibition of cell proliferation in MiaPaca-2 (IC50 class)
# [25] = Homo sapiens, MIA PaCa-2, Table 3, read-out: MiaPaca-2 (IC50 class)
# [26] = Homo sapiens, Table 5, HCT-116 mutant KRAS colorectal cancer cell line, read-out: HCT-116
# [27] = Homo sapiens, Table 5, HPAF-II mutant KRAS pancreatic cancer cell line, read-out: HPAF-II
# [28] = Homo sapiens, MIA PaCa-2, Table 5, MiaPaca-2 mutant KRAS pancreatic cancer cell line, read-out: MiaPaca-2
# T2 sequence (P04049 307-648 Y340D/Y341D): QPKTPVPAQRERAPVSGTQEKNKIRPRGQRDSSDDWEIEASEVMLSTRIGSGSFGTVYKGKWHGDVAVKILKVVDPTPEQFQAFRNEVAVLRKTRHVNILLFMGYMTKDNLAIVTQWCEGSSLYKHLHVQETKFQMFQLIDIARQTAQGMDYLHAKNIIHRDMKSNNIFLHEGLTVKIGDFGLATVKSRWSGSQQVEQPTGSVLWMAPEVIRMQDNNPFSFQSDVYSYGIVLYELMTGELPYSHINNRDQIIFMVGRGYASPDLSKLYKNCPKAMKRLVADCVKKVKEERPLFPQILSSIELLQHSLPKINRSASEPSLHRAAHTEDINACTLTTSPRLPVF
# T3 sequence (P15056 416-766): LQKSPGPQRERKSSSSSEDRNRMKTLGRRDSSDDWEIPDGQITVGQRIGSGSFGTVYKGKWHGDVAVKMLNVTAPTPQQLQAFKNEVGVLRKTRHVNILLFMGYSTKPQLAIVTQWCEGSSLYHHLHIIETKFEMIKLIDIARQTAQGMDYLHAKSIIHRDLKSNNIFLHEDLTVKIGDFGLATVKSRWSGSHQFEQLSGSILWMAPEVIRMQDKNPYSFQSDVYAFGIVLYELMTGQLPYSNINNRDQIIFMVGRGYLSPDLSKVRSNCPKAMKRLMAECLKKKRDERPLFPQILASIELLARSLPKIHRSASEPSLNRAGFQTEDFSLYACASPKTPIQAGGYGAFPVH
# T1 sequence (P02550 whole entry): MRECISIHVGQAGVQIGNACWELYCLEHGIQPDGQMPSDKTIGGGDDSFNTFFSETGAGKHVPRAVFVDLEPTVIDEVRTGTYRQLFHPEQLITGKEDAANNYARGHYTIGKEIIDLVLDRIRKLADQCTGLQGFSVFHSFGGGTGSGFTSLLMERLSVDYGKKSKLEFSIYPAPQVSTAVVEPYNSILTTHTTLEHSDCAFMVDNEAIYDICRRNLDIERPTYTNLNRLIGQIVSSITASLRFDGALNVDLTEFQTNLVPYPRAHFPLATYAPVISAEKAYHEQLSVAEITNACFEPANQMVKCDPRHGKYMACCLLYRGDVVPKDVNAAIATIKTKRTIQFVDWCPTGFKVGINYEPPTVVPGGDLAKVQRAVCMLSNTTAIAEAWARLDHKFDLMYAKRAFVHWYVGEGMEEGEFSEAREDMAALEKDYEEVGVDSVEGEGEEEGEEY
# T1 sequence (P02554 whole entry): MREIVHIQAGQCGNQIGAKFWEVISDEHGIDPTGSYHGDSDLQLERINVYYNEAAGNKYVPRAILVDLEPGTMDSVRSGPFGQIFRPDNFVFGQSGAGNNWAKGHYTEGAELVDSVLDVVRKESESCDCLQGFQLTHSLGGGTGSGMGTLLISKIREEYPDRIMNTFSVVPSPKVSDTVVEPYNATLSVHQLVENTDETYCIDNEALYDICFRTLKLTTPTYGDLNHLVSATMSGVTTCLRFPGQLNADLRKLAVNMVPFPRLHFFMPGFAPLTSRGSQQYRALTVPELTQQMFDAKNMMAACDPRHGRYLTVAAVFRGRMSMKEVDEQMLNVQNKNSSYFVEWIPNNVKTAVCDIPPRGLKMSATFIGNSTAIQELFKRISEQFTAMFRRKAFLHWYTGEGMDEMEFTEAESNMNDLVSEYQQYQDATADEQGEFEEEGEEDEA
Compound,"IC50 [2, 16] [nM]","IC50 [3, 18] [nM]","IC50 [5, 22] [nM]","IC50 [6, 24] [nM]",IC50 [8] [nM],"IC50 [4, 20] [nM]",other results
Cc1ccc(NC(=O)c2ccnc(C(C)(C)F)c2)cc1-c1ccnc(-c2ccnc(NC(=O)C3CC3)c2)c1 [reference compound],,,,,,,"IC50 [1, 9]: > 100000 nM; IC50 [2, 10]: < 100 nM; IC50 [3, 11]: 100 to 500 nM; IC50 [4, 12]: 500 to 1000 nM; IC50 [5, 13]: < 100 nM; IC50 [6, 14]: 1000 to 10000 nM"
Cc1ccc(NC(=O)c2ccnc(C3CC3)c2)cc1-c1ccnc(-c2ccnc(NC(=O)C3CC3)c2)c1 [reference compound],,,,,,,"IC50 [1, 9]: > 100000 nM; IC50 [2, 10]: < 100 nM; IC50 [3, 11]: 500 to 1000 nM; IC50 [4, 12]: 1000 to 10000 nM; IC50 [5, 13]: < 100 nM; IC50 [6, 14]: 1000 to 10000 nM"
"CCCS(=O)(=O)Nc1ccc(F)c(C(=O)c2c[nH]c3ncc(-c4ccc(Cl)cc4)cc23)c1F [Vemurafenib, vemurafenib]",,,,,,,IC50 [7]: 1000 to 10000 nM
"Cc1ccc(NC(=O)N2CC[C@@H](CC(F)(F)F)C2)cc1-c1cc(N[C@H](C)CO)nc(N2CCOCC2)c1 [Exarafenib, reference compound]",,,,,,,"IC50 [7]: 1000 to 10000 nM; IC50 [3, 26]: 500 to 1000 nM; IC50 [4, 27]: 1000 to 10000 nM; IC50 [6, 28]: 1000 to 10000 nM"
Cc1ccc(NC(=O)c2ccnc(C(F)(F)F)c2)cc1-c1cc(OCCO)nc(N2CCOCC2)c1 [Naporafenib],,,,,,,IC50 [7]: 1000 to 10000 nM
"CC(C)(C)c1nc(-c2cccc(NS(=O)(=O)c3c(F)cccc3F)c2F)c(-c2ccnc(N)n2)s1 [Dabrafenib, dabrafenib]",,,,,,,IC50 [7]: 1000 to 10000 nM
Cc1ccc(NC(=O)c2ccnc(C(C)C)c2)cc1-c1ccnc(-c2ccnc(NC(=O)C3CC3)c2)c1 [reference compound],,,,,,,"IC50 [1, 9]: > 100000 nM; IC50 [2, 10]: < 100 nM; IC50 [3, 11]: 1000 to 10000 nM; IC50 [4, 12]: 100 to 500 nM; IC50 [5, 13]: < 100 nM"
"C[C@@H](NC(=O)c1ncnc(N)c1Cl)c1ncc(C(=O)Nc2cc(C(F)(F)F)c(Cl)cn2)s1 [Tovorafenib, reference compound]",,,,,,,"IC50 [7]: 1000 to 10000 nM; IC50 [3, 26]: 1000 to 10000 nM; IC50 [4, 27]: 1000 to 10000 nM; IC50 [6, 28]: 1000 to 10000 nM"
Cc1ccc(NC(=O)c2cncc(C(F)(F)F)c2)cc1-c1cncc(-c2cc(NC(=O)C3CC3)ncn2)c1 [Example 66],< 100,< 100,< 100,100 to 500,500 to 1000,< 100,"IC50 [1, 15]: > 100000 nM; IC50 [2, 17]: < 100 nM; IC50 [3, 19]: < 100 nM; IC50 [4, 21]: < 100 nM; IC50 [5, 23]: < 100 nM; IC50 [6, 25]: 100 to 500 nM"
Cc1ccc(NC(=O)c2cc(C3CC3)cnn2)cc1-c1cncc(-c2cc(NC(=O)C3CC3)ncn2)c1 [Example 69],< 100,100 to 500,< 100,1000 to 10000,1000 to 10000,500 to 1000,
Cc1ccc(NC(=O)c2cc(C(F)(F)F)cnn2)cc1-c1cc(N[C@H](C)CO)nc(-c2cn[nH]c2)c1 [Example 119],< 100,< 100,< 100,< 100,< 100,< 100,"IC50 [1, 15]: < 3000 nM; IC50 [2, 17]: < 100 nM; IC50 [3, 19]: < 100 nM; IC50 [4, 21]: < 100 nM; IC50 [5, 23]: < 100 nM; IC50 [6, 25]: < 100 nM"
Cc1ccc(NC(=O)c2cc(C3CC3)cnn2)cc1-c1cc(N[C@H](C)CO)nc(-c2cn[nH]c2)c1 [Example 117],< 100,< 100,< 100,< 100,< 100,< 100,

# Now from value to compound, other results behind:
"IC50 [2, 16] [nM]","IC50 [3, 18] [nM]","IC50 [5, 22] [nM]","IC50 [6, 24] [nM]",Compound,IC50 [8] [nM],"IC50 [4, 20] [nM]",other results
< 100,< 100,< 100,100 to 500,Cc1ccc(NC(=O)c2cc(C(C)(C)F)cnn2)cc1-c1ccnc(-c2ccnc(NC(=O)C3CC3)c2)c1 [Example 59],100 to 500,100 to 500,"IC50 [1, 15]: < 3000 nM; IC50 [2, 17]: < 100 nM; IC50 [3, 19]: < 100 nM; IC50 [4, 21]: 100 to 500 nM; IC50 [5, 23]: < 100 nM; IC50 [6, 25]: 100 to 500 nM"
< 100,< 100,< 100,100 to 500,Cc1ccc(NC(=O)c2cc(C(F)(F)F)cnn2)cc1-c1cc(N[C@H](C)CO)nc(-c2ccnc(NC(=O)C3CC3)c2)c1 [Example 45],100 to 500,< 100,"IC50 [1, 15]: 3000 to 20000 nM; IC50 [2, 17]: < 100 nM; IC50 [3, 19]: < 100 nM; IC50 [4, 21]: < 100 nM; IC50 [5, 23]: < 100 nM; IC50 [6, 25]: 100 to 500 nM"
< 100,,< 100,,CC(=O)Nc1cc(-c2cncc(-c3cc(NC(=O)c4cc(C(F)(F)F)cnn4)ccc3C)c2)ncn1 [Example 71],1000 to 10000,,"IC50 ([3]; HCT-116 cells, Table 2, read-out: Inhibition of cell proliferation in HCT-116 (IC50 class)): 100 to 500 nM; IC50 ([4]; HPAF-II cells, Table 2, read-out: Inhibition of cell proliferation in HPAF-II (IC50 class)): 500 to 1000 nM; IC50 ([6]; MiaPaca-2 cells, Table 2, read-out: Inhibition of cell proliferation in MiaPaca-2 (IC50 class)): 500 to 1000 nM"
500 to 1000,< 100,1000 to 10000,100 to 500,Cc1ccc(NC(=O)c2cc(C(C)(F)F)cnn2)cc1-c1ccnc(-c2ccsc2)c1 [Example 148],100 to 500,100 to 500,
< 100,100 to 500,< 100,100 to 500,"Cc1ccc(NC(=O)c2cc(C(F)(F)F)cnn2)cc1-c1ccnc(-c2ccnc(NC(=O)C3CNCC3(F)F)c2)c1 (stereo not shown) [Example 92, N-[3-[2-[2-[(4,4-difluoropyrrolidine-3-carbonyl)amino]-4-pyridyl]-4-pyridyl]-4-methyl-phenyl]-5-(trifluoromethyl)pyridazine-3-carboxamide]",500 to 1000,500 to 1000,
< 100,100 to 500,< 100,100 to 500,Cc1ccc(NC(=O)c2cc(C(C)C)cnn2)cc1-c1ccnc(-c2ccnc(NC(=O)C3CC3)c2)c1 [Example 38],500 to 1000,100 to 500,
< 100,100 to 500,< 100,100 to 500,Cc1ccc(NC(=O)c2ccc(C(C)(F)F)nc2)cc1-c1ccnc(-c2ccnc(NC(=O)C3CC3)c2)c1 [Example 80],100 to 500,100 to 500,
< 100,100 to 500,100 to 500,100 to 500,Cc1ccc(NC(=O)c2cc(C(C)(F)F)cnn2)cc1-c1ccnc(-c2cnsc2)c1 [Example 137],500 to 1000,100 to 500,
